Measurements from PubChem BioAssay AID179 (DTP/NCI, 2004).
Values joined by “and” are separate entries in the source; they are usually repeats but may differ in a detail not shown here. Identical values can stand only once. Active and inactive are the calls of the source.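 Rule for the calls: active = compounds giving half or more protection of infected cells from virus-caused growth loss, again on retest; inactive = the rest.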

System: CEM cells HIV-1 protection, formazan growth assay
Test: NCI AIDS Antiviral Assay
Conditions: for IC50: measured here: growth of uninfected CEM cells
In short: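 Screen of anti-HIV-1 activity in human CEM cells using a formazan-based growth measurement at five drug concentrations. Hits with 50% or greater protection were repeated, and confirmation required reproducible complete protection.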

Row | SMILES | EC50 | IC50 | outcome
1 | Cc1ccc(N2C(=O)C3c4[nH]c5ccccc5c4C4CCC(C(C)(C)C)CC4C3C2=O)cc1 (stereo not drawn) | > 200 µM | 35.5 µM | –
2 | CCOC(=O)/C(Br)=C1\OC(=O)c2ccccc2-c2ccccc21 | > 19.5 µM | > 19.5 µM | –
3 | CCN1C(=NCCO)NS(=O)(=O)c2ccccc21 | > 200 µM | > 200 µM | –
4 | BrN1C2c3ccccc3C1c1ccccc12 | – | – | inactive
5 | CO/C(=N\N=C(/c1ccccc1)C(F)(F)F)c1ccncc1 | > 200 µM | 27.5 µM | –
6 | Cc1ccc(N=Nc2c(N)nn3cc4c(nc23)CCC4)cc1 | > 200 µM | > 200 µM | –
7 | COc1cc2c3c(n(C)c(=O)c2cc1OC)-c1cc2c(cc1C3=O)OCO2 | > 14.5 µM | 0.891 µM | –
8 | O=C(O)c1cc(N=C=S)ccc1-c1c2ccc(=O)cc-2oc2cc(O)ccc12 | 43.7 µM and 44.7 µM | 316 µM and > 100 µM | –
9 | CCCCn1cnc2ccc3[nH]c(C)nc3c2c1=O | > 759 µM | 55 µM | –
10 | COc1ccc2c(c1)C/C(=C\c1cccc3ccccc13)C2=O | > 200 µM | 51.3 µM | –
11 | CC(=O)N1c2cc(N=NN(C)C)ccc2NC(=O)CC1C (stereo not drawn) | > 200 µM | > 200 µM | –
12 | CC(CC(=O)Nc1ccc(NC(=O)CC(C)N=NC(N)=S)cc1)N=NC(N)=S (stereo not drawn) | > 158 µM | 102 µM | –
13 | Fc1ccc(C2=NOC3COC4C=CC=CC4OCC23)cc1 (stereo not drawn) | > 120 µM | > 120 µM | –
14 | C[C@]12CCC3[C@@H](CC[C@@H]4/C(=N\O)C(=O)/C(=N\O)C[C@]34C)C1C/C(=N\O)C2=O (stereo partly drawn) | – | – | inactive
15 | C[C@]12CC[C@H]3[C@@H](CCC4=CC(=O)C=C[C@@]43O)[C@@H]1CCC2=O | > 200 µM | > 200 µM | –
16 | COC(=O)c1ncn(C2CCCCC2)c1N | > 200 µM | > 200 µM | –
17 | CCC[CH2][Sn]1([CH2]CCC)[O]C(=O)C2C(C=C(C)C)C=C(C)C(C)C2C(=O)[O]1 (stereo not drawn) | > 2 µM | 0.0871 µM | –
18 | NNC1=N/C(=C\c2ccccc2O)C(=O)N1 | > 200 µM | 35.5 µM | –
19 | CCCCCCN(CCCCCC)CC(=O)Nc1ccc(S(=O)(=O)c2ccc(NC(=O)CN(CCCCCC)CCCCCC)cc2)cc1 | > 200 µM | 11.5 µM | –
20 | COc1cc(N=CN(C)C)c2ncccc2c1 | – | – | inactive
21 | O=C(Oc1cccc2cccnc12)c1ccccc1 | > 200 µM | 33.9 µM | –
22 | N#C/C(=C\c1cc(O)c(O)c(I)c1)C(=O)NCCCc1ccccc1 | > 200 µM | 9.55 µM | –
23 | Cc1ccc(C2=C/C(=C/c3ccc(N(CCC#N)CCC#N)cc3)C(=O)O2)cc1C | > 13.2 µM | > 13.2 µM | –

Row | SMILES | EC50 | IC50 | outcome
24 | C=C(C)c1nc(Oc2ccccc2)nc(Oc2ccccc2)n1 | > 200 µM | 3.55 µM | –
25 | NC(CSS(=O)(=O)CC(N)C(=O)O)C(=O)O (stereo not drawn) | – | 63.1 µM | inactive
26 | CCOC(=O)/C(=C\c1cccc(OC)c1)[Se]c1ccccc1 | > 14.5 µM | 7.59 µM | –
27 | O=C(CCC[n+]1ccccc1)CC(O)(C(F)(F)F)C(F)(F)F | > 200 µM | > 200 µM | –
28 | c1ccc2c(c1)[nH]c1cnc3c4ncccc4[nH]c3c12 | – | – | inactive
29 | CCOC(=O)C(C(=O)OCC)C(C(=O)OCC)C(=O)OCC | > 200 µM | > 200 µM | –
30 | O=C1OC(/C=C/c2ccccc2)Sc2ccccc21 (stereo not drawn) | – | – | inactive
31 | c1ccc(N=C2c3ccsc3C(=Nc3ccccc3)c3ccsc32)cc1 | > 200 µM | 2.51 µM | –
32 | Cc1[nH]c2ncn(N)c(=N)c2c1Cc1ccccc1 | > 200 µM | > 200 µM | –
33 | COC(=O)C1Cc2c([nH]c3ccccc23)-c2[nH]c3ccccc3c2CC(NC(C)=O)C(=O)NCC(=O)NCC(=O)N1 (stereo not drawn) | > 200 µM | > 200 µM | –
34 | CCOc1ccccc1NC(=O)C(=O)C(/C(=N/N)C(=O)OC)c1nc2ccc([N+](=O)[O-])cc2[nH]c1=O (stereo not drawn) | > 263 µM | > 263 µM | –
35 | CC(=O)CC(=O)NC=O | > 263 µM | > 263 µM | –
36 | O=[N+]([O-])c1nccn1CC(O)CO (stereo not drawn) | > 661 µM | > 661 µM | –
37 | CCN(CC)C(=S)SS(=O)(=O)c1cccc(N)c1 | > 200 µM | > 200 µM | –
38 | CC(=O)Nc1ccc([As](=O)(O)O)cc1[N+](=O)[O-] | > 200 µM | > 200 µM | –
39 | c1ccc2c3[nH]c(c2c1)=Nc1ccc(cc1)-c1nc2cc(ccc2o1)N=c1[nH]c(c2ccccc12)=Nc1ccc2nc(oc2c1)-c1ccc(cc1)N=3 | > 200 µM | 40.7 µM | –
40 | O=C1CN(CCN2CCCCC2)CC(=O)N2CCCCN12 | > 200 µM | > 200 µM | –
41 | CN(C)C(=O)C1(c2ccc(Cl)cc2)CCN(CCCC(=O)c2ccc(F)cc2)CC1 | > 79.4 µM | 69.2 µM | –
42 | N#C/C(=C/c1cccnc1)C(=O)c1ccccc1 | > 398 µM | 67.6 µM | –
43 | Cc1cccc(C)c1NC(=O)CCCC(=O)C1/C(=N/NC(=O)CC#N)CCC/C1=N\NC(=O)CC#N (stereo not drawn) | > 72.4 µM | > 72.4 µM | –
44 | CC(C)(C)C1CCC2c3c([nH]c4ccccc34)C3C(=O)N(c4ccc5c(c4)C(=O)c4ccccc4C5=O)C(=O)C3C2C1 (stereo not drawn) | > 200 µM | > 200 µM | –
45 | O=C1Oc2ccccc2[C@@H]2[C@H]1[C@@H]1C(=O)Oc3ccccc3[C@@H]12 | > 46.8 µM | > 46.8 µM | –
46 | CC(=O)OC1CC2C(C)(C)CCC[C@]2(C=O)C2=C1C(O)=C(C(C)C)C(=O)C2=O (stereo partly drawn) | – | – | inactive

Row | SMILES | EC50 | IC50 | outcome
47 | CCc1c2c(cc3c1CC1(C3)Cc3cc4c(c(C(=O)OC)c3C1)CCCC4)CCCC2 (stereo not drawn) | > 200 µM | 166 µM | –
48 | COc1c2oc(=O)ccc2c(Br)c2c(Br)c(Br)oc12 | > 102 µM | 47.9 µM | –
49 | CN1CCN(c2ncc3c(n2)sc2c(=O)n(-c4ccccc4)cnc23)CC1 | > 200 µM | > 200 µM | –
50 | CC(C)C(=O)OCN(C)c1nc(N(C)COC(=O)C(C)C)nc(N(C)COC(=O)C(C)C)n1 | > 200 µM | 18.6 µM | –
51 | O=C1c2cc(Cl)ccc2-n2c(noc2=O)C2CSCN12 (stereo not drawn) | > 200 µM | > 200 µM | –
52 | Nc1ncc2c(ncn2CC(O)CO)n1 (stereo not drawn) | > 1200 µM | > 1200 µM | –
53 | CCOC(=O)c1cc2c3c(c(O)c(OC)c2s1)N(C(=O)c1cc2c4c(c(O)c(OC)c2s1)N(C(C)=O)CC4)CC3 | – | – | inactive
54 | COc1ccc(C2=NC(c3ccccc3)N3C(c4ccccc4)NC(c4ccccc4)C2C3c2ccccc2)cc1 (stereo not drawn) | – | – | inactive
55 | CSCCOC(=O)c1cc(NC(=S)c2ccoc2C)ccc1Cl | 0.0182 µM | 19.5 µM | –
56 | C=CCn1c(=O)c(-c2ccccc2)c(O)c2ccccc21 | > 200 µM | > 200 µM | –
57 | CCN(CC)CCC(=O)c1ccc(Oc2ccccc2)cc1 | > 200 µM | 17.4 µM | –
58 | CO/C=C/c1cc2c(cc1C(OC)OC)OCO2 | – | – | inactive
59 | CC(Oc1cc2oc(=O)cc(-c3ccccc3)c2cc1Cl)C(=O)O (stereo not drawn) | – | – | inactive
60 | CC(=O)C(=[N+]=[N-])C(=O)OCCOC(=O)C(=[N+]=[N-])C(C)=O | > 200 µM | > 200 µM | –
61 | Cc1c(Cl)cccc1N1C(=O)C(Cl)=C(Cl)C1=O | – | – | inactive
62 | CC(=O)OCC1OC(OCCCCCCO)C(OC(C)=O)C(OC(C)=O)C1OC(C)=O (stereo not drawn) | > 200 µM | > 200 µM | –
63 | CCOC(=O)C1CCC(=O)N1C(=O)c1ccccc1 (stereo not drawn) | > 200 µM | > 200 µM | –
64 | Clc1ccc(SSc2ccc(Cl)cc2Cl)c(Cl)c1 | > 200 µM | 6.76 µM | –
65 | CC(C)(C)OC(=O)C1/C(=C/CO)CN1C(=O)OC(C)(C)C (stereo not drawn) | > 200 µM | 43.7 µM | –
66 | CC(C)CCCC(C)[C@H]1CC[C@H]2[C@@H]3CC[C@H]4C[C@@H](CCC=C(c5cc(Cl)c(OC(=O)C(C)C)c(C(=O)O)c5)c5cc(Cl)c(OC(=O)C(C)C)c(C(=O)O)c5)CC[C@]4(C)[C@H]3CC[C@]12C (stereo partly drawn) | 105 µM | 126 µM | –
67 | CCOC(=O)c1c(NS(=O)(=O)c2ccc(Br)cc2)sc2c1CCCC2 | – | – | inactive
68 | CC1(C)CC(=O)C(CCC(=O)/C=C/c2ccccc2)C(=O)C1 | > 87.1 µM | > 87.1 µM | –
69 | O=c1[nH]nc(-c2ccc([N+](=O)[O-])cc2)[nH]1 | > 200 µM | > 200 µM | –

Row | SMILES | EC50 | IC50 | outcome
70 | COC(=O)C1=C(C(=O)OC)C2(C3C(SC)=CC(C)(C)CC3S1)N(Cc1ccccc1)CCN2Cc1ccccc1 (stereo not drawn) | > 9.12 µM | > 9.12 µM | –
71 | CC[C@@]1(O)C(=O)OCc2c1cc1n(c2=O)Cc2cc3ccccc3nc2-1 | > 0.1 µM | 0.0162 µM | –
72 | O=C(NNC(=S)NCc1ccccc1)C12CC3CC(CC(C3)C1)C2 | > 200 µM | 25.1 µM | –
73 | Cc1cc(N(CCC#N)CCC#N)ccc1/C=C(\NC(=O)/C=C/c1ccccc1)C(=O)N=[N+]=[N-] | – | – | inactive
74 | C/C(=N\N=C(N)N)C(CN(CC(C)C)CC(C)C)C(=O)Nc1ccc(C)cc1C (stereo not drawn) | > 17.8 µM | > 17.8 µM | –
75 | COc1ccc2oc(=O)c(-c3csc(C)n3)cc2c1 | > 151 µM | 138 µM | –
76 | COCCNc1cncc(C(N)=O)c1 | > 200 µM | > 200 µM | –
77 | O=C(N/N=C/c1cccc([N+](=O)[O-])c1)C(=O)N/N=C/c1cccc([N+](=O)[O-])c1 | > 100 µM | > 100 µM | –
78 | C=c1[nH]c(=O)c(=C)[nH]c1=O | > 72.4 µM | 26.3 µM | –
79 | COc1ccc(-c2nc(-c3cnccn3)n(C3OC(CO)C(O)C3O)n2)cc1 (stereo not drawn) | > 200 µM | > 200 µM | –
80 | CCOC(=O)NC1CS(=O)(=O)CC1Cl (stereo not drawn) | > 200 µM | > 200 µM | –
81 | CC(CC1c2ccccc2CCc2ccccc21)CN(C)C (stereo not drawn) | > 200 µM | 33.1 µM | –
82 | CO/C(N)=C(\C#N)N=Cc1ccco1 | > 200 µM | 191 µM | –
83 | Cc1ccc(NC(=O)CCc2nc(=S)[nH][nH]2)cc1 | 251 µM | 331 µM | –
84 | O=C1N[C@H]2c3c(Cl)sc(Cl)c3[C@@H](O)[C@H]2O1 | > 200 µM | > 200 µM | –
85 | COc1cc(=O)cc(Cl)c(Cl)c1Cl | – | – | inactive
86 | CSC1=C(C)S/C(=C\c2ccc(/C=C3\SC(C)=C(SC)S3)cc2)S1 | – | – | inactive
87 | CCOC(=O)C1(C(=O)OCC)COC(=O)C1CN1Cc2cc3ccccc3nc2C1 (stereo not drawn) | > 427 µM | 47.9 µM | –
88 | C[C@]12CC/C(=N/O)C(O)=C1CC[C@@H]1C2CC[C@]2(C)NC(=O)CCC12 (stereo partly drawn) | > 282 µM | 132 µM | –
89 | O=C(Nc1ccn(C2CCC(CO)O2)c(=O)n1)c1ccccc1 (stereo not drawn) | 0.741 µM | > 200 µM | –
